From PMC5023777 (British Journal of Cancer, 2016)

Columns and labels:
HCT116 cells [1] = test: Cell cycle phase analysis by flow cytometry, HCT116; details: GI50 concentration (100 μM for 6 and 3), 24 h, asynchronous cultures
HCT116 cells [2] = test: SRB cell growth inhibition assay, HCT116; type: cell-based, human; details: HCT116 and HT29 cells, SRB GI50
mTOR = mTOR (Homo sapiens, UniProt P42345); test: mTOR kinase TR-FRET assay; type: biochemical
HCT116 cells [3] = test: Clonogenic survival assay, HCT116; type: cell-based, human; details: 10 μM, 72 h exposure
CDK2 = CDK2 (Homo sapiens, UniProt P24941); test: CDK2 purified kinase assay; type: biochemical

mTOR, sequence (P42345 1360-2549 limits assumed): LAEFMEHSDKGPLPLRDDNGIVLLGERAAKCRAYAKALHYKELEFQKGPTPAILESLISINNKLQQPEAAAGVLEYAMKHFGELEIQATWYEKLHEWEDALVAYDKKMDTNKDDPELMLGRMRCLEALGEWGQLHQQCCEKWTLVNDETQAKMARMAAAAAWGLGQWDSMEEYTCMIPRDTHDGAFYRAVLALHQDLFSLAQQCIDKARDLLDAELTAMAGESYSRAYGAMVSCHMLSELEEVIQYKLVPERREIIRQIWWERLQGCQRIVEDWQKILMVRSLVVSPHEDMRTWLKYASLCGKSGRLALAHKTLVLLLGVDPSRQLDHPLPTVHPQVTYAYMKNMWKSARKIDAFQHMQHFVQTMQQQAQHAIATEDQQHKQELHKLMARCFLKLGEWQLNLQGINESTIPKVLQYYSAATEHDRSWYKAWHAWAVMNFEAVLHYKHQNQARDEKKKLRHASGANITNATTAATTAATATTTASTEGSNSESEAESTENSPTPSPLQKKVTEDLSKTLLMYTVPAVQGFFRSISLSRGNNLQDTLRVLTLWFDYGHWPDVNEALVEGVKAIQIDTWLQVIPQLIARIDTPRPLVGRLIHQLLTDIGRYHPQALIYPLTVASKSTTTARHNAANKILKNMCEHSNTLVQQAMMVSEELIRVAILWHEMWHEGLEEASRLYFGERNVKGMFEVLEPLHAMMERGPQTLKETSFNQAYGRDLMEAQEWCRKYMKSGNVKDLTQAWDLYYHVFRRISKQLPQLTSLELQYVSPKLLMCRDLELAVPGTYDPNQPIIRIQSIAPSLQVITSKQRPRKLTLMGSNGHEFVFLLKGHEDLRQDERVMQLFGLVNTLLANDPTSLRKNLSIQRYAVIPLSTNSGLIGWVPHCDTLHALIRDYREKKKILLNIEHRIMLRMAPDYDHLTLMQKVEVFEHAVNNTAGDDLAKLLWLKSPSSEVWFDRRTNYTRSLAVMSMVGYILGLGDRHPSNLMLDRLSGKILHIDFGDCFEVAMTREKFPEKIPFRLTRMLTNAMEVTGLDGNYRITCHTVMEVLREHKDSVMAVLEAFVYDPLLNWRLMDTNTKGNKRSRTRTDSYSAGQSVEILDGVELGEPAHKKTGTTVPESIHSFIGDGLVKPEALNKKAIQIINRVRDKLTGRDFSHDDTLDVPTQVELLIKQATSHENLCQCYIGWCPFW

| Structure (SMILES) | effect on cell cycle phase distribution, HCT116 (HCT116 cells [1]) | fold less potent at inhibiting cell growth than 1, 2 and 5 (HCT116 cells [2]) | IC50 (mTOR) [µM] | further results |
| --- | --- | --- | --- | --- |
| CO[C@H]1C[C@@H]2CC[C@@H](C)[C@@](O)(O2)C(=O)C(=O)N2CCCC[C@H]2C(=O)O[C@H]([C@H](C)C[C@@H]2CC[C@@H](O)[C@H](OC)C2)CC(=O)[C@H](C)/C=C(\C)[C@@H](O)[C@@H](OC)C(=O)[C@H](C)C[C@H](C)/C=C/C=C/C=C/1C [Rapamycin] | caused a G1 arrest | – | – | – |
| CCC(C)Oc1nc(N)nc(N)c1C#N (stereo not shown) [Compound 7, 2,6-Diamino-4-sec-butoxypyrimidine-5-carbonitrile] | – | 5–10 fold | > 20 | – |
| NS(=O)(=O)c1ccc(Nc2nc(OCC3CCCCC3)c3nc[nH]c3n2)cc1 [NU6102, 4-[[6-(cyclohexylmethoxy)-9H-purin-2-yl]amino]-benzenesulfonamide] | – | – | – | cytotoxicity (clonogenic), HCT116 (HCT116 cells [3]): cytotoxic as a single agent |
| Nc1nc(N)c(N=O)c(OCC2CCCCC2)n1 [Compound 2] | greater G1 phase accumulation than rapamycin or dactolisib | – | 19 | – |
| Cn1c(=O)n(-c2ccc(C(C)(C)C#N)cc2)c2c3cc(-c4cnc5ccccc5c4)ccc3ncc21 [Dactolisib (NVP-BEZ235)] | caused a G1 arrest | – | – | – |
| Nc1nc(N)c(N=O)c(OCc2ccc(Cl)cc2)n1 [Compound 8, 6-(4-Chlorobenzyloxy)-5-nitrosopyrimidine-2,4-diamine] | – | 5–10 fold | 4.9 | inhibition of CDK2 (in words) (CDK2): did not inhibit CDK2 |
